These results are taken from ChEMBL document CHEMBL1130628, “Synthesis and antiproliferative activity of a cyclic analog of dolastatin 10” (Bioorg Med Chem Lett, 1998).

In assay [1] the target is T1, Tubulin alpha chain (Sus scrofa, UniProt P02550). The assay is described as follows: Compound was tested in vitro for inhibition of tubulin polymerization. It is filed as functional.
In assay [2] the test system is L1210. As to the kind of experiment: Compound was evaluated for antiproliferative activity against murine leukemia (L1210) cell lines. The class given is functional, cell-based. As to conditions: Mus musculus.
The subject of assay [3] is HT-29. The assay is described as follows: Compound was evaluated for antiproliferative activity against human colon adenocarcinoma (HT-29) cell lines. The class given is functional, cell-based.
Assay [4] concerns L1210. As to the kind of experiment: Compound was evaluated for antiproliferative activity against murine leukemia (L1210) cell lines. The class given is functional, cell-based. The note with it: Mus musculus.
Assay [5] concerns the target T1, Tubulin alpha chain. The assay is described as follows: Compound was tested in vitro for inhibition of tubulin polymerization. The class given is functional.

T1 sequence (P02550 whole entry, looked up): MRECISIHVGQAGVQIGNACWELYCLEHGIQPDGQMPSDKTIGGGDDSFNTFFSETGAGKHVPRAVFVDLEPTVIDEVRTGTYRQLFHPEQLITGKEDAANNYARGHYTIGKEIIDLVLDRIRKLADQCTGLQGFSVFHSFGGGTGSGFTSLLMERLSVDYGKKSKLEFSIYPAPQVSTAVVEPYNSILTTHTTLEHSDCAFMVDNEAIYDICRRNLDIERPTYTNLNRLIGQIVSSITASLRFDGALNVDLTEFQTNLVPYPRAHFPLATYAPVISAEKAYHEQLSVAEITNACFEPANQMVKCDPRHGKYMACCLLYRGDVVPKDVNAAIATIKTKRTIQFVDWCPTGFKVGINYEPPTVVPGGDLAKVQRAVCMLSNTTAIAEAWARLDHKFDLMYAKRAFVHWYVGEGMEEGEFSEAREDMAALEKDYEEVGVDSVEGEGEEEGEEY

For the molecule `CC[C@H](C)[C@H]1[C@H](OC)CC(=O)N2CCC[C@H]2[C@H](OC)[C@H](C)C(=O)N[C@@H](Cc2ccccc2)c2nc(cs2)C(=O)O[C@H](C)[C@H](N(C)C)C(=O)N[C@@H](C(C)C)C(=O)N1C`, the IC50 (in general, the concentration that inhibits the measured activity by half) in assay [1] was 39000 nM; in assay [2] it was 111 nM; in assay [3], 58.5 nM.
Consider `CC[C@H](C)[C@@H]([C@@H](CC(=O)N1CCC[C@H]1[C@H](OC)C(C)C(=O)NC(Cc1ccccc1)c1nccs1)OC)N(C)C(=O)[C@@H](NC(=O)[C@H](C(C)C)N(C)C)C(C)C` (single isomer, unassigned) [DOLASTATIN-10], for which the IC50 in assay [4] worked out at 0.03 nM; in assay [3] it was 0.06 nM; in assay [5], 2200 nM.
